Among the data in ChEMBL document CHEMBL1201862, “PubChem BioAssay data set” (2004) are AC50 and EC50 values, retold here.

One test deals with Cytochrome P450 3A4 (Homo sapiens, UniProt P08684).
For a further test, the target named is Cytochrome P450 2C9 (Homo sapiens, UniProt P11712).
A further test concerns the target T1, Streptokinase A (Streptococcus pyogenes serotype M1, UniProt P10520).
T1 sequence (P10520 whole entry): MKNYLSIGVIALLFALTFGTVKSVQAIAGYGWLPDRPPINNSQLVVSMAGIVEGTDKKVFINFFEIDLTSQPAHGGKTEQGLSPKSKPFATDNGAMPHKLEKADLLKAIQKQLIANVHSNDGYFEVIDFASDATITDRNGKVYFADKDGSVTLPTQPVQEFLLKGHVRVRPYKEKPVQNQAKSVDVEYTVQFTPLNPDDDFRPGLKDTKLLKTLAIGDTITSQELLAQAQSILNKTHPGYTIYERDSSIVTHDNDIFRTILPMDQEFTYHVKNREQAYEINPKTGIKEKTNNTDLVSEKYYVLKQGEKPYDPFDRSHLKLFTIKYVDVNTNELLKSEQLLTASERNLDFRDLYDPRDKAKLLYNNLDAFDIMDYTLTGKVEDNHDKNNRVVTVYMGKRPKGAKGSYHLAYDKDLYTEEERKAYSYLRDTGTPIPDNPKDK
The test can be described thus: viability-normalized secreted streptokinase activity reduction – plasminogen activation absorbance, OD405, dose response (AID 1914).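 Further: secreted streptokinase activity via plasminogen activation per viability signal from cell pellet.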 In kind it is functional, Streptococcus pyogenes M1 GAS.

The test system of a further test is Streptococcus. Briefly: GAS UMAA2166 growth inhibition – luminescence, BacTiterGlo, counter-screen for streptokinase expression inhibitor project, dose response (AID 1915).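 Further: potency for reduction of bacterial viability or growth.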 In kind it is functional, organism-based. Background: The purpose of a counterscreen is to sort out artefacts and off-target activity.
Test [1] concerns Streptococcus sp. 'group A'. The test can be described thus: Streptococcus pyogenes SK(-)GAS viability under kanamycin – luminescence, BacTiterGlo, confirmation, counter-screen for streptokinase expression inhibitor project, dose response (AID 1900). In kind it is functional, organism-based.
A short description of test [2]: NIH3T3 cell viability loss – ATP luminescence, mouse fibroblasts, counter-screen, dose response (AID 2010).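 Further: cells exposed to compound for about 90 hours before reading.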 In kind it is functional, cell-based.
Test [3] in a line: Trypanosoma cruzi growth suppression in host cells – NIH3T3 host cells, beta-gal luminescence, confirmation (AID 2044).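 Further: intracellular parasites grown in NIH/3T3 mouse fibroblasts as host cells; luminescent beta-galactosidase reporter signal from transgenic T. cruzi replicating inside host cells; inhibitors lower the luminescence signal.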 In kind it is functional, cell-based.
The target in test [4] is T2, Corticotropin-releasing factor receptor 2/Corticotropin-releasing factor-binding protein (Homo sapiens, UniProt P24387+Q13324).
T2 sequence (Q13324 whole entry): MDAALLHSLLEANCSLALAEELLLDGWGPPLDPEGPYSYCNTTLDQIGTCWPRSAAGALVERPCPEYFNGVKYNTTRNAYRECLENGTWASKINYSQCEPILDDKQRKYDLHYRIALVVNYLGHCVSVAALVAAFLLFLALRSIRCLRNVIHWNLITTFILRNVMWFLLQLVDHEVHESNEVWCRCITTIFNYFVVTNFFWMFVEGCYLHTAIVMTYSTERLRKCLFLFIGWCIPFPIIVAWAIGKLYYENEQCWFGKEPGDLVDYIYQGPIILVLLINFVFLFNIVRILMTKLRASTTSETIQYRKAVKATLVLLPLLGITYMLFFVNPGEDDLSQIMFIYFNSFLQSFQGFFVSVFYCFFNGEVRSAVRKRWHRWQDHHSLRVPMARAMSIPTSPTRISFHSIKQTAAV
T2 sequence (P24387 whole entry): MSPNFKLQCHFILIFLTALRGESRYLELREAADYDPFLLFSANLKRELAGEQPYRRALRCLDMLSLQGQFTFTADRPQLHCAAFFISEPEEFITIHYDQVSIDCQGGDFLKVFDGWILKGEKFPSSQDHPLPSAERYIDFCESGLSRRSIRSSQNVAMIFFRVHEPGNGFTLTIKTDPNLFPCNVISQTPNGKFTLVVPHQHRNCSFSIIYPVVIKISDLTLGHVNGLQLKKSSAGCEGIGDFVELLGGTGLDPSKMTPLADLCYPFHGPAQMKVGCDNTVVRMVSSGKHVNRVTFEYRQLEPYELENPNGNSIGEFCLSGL
Briefly: activators of CRF receptor 2 with binding protein – uHTS hits, confirmation (AID 602473). The note with it: read-out: EC50_Mean. In kind it is functional.

Where “and” joins values, the source holds several entries; their conditions need not be identical. Identical values can stand only once. Calls of active or inactive are those of the source. For most assays here, no stated cut-off is given here; in the data, actives have a measured EC50 and inactives only a lower limit.

Cytochrome P450 2C9, sequence (P11712 whole entry): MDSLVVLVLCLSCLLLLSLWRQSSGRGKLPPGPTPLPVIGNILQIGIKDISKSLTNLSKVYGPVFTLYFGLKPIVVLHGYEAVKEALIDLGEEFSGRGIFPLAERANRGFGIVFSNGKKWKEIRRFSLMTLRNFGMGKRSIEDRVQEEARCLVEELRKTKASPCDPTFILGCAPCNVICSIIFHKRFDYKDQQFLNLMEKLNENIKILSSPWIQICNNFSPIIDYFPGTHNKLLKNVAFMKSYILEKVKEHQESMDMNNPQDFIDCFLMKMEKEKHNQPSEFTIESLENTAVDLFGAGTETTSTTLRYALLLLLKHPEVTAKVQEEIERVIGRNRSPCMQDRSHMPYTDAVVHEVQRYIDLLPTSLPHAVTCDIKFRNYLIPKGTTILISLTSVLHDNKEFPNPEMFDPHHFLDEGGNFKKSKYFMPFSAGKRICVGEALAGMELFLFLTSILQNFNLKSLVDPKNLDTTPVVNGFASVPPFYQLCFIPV
Cytochrome P450 3A4, sequence (P08684 whole entry): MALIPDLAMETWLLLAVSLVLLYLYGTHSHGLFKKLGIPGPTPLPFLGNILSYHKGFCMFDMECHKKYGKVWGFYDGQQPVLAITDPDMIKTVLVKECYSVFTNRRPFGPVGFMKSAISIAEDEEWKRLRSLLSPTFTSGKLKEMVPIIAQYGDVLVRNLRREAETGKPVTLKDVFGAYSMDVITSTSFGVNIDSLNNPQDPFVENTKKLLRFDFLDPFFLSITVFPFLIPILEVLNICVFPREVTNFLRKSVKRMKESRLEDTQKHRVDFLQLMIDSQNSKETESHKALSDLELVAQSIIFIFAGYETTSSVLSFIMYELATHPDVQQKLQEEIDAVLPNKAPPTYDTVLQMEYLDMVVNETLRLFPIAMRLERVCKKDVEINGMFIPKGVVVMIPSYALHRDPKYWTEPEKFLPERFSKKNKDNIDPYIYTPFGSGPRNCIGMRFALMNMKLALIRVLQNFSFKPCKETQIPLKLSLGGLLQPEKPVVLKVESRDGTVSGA

`CC(C)(C)c1cccc(Oc2nn[nH]n2)c1`: the AC50 (in general, the midpoint of the concentration-response curve, whichever way the signal moves) on Cytochrome P450 3A4 was 22.4 µM (inconclusive); at Cytochrome P450 2C9 it was 25.1 µM (inconclusive). Take `C#CCCCO/N=C1/C[C@@H](O)[C@@H](O)[C@@H]2[C@@H]3C(=O)N(C[C@@H]4CCCO4)C(=O)[C@H]3CC[C@@H]12`: at Cytochrome P450 3A4, the half-maximal activity concentration (AC50) is 3.98 µM (inconclusive). Consider `CC(C)Oc1ccc2c(=O)c3cc(C(=O)O)ccc3oc2c1`, for which the concentration at half-maximal activity (AC50) at Cytochrome P450 2C9 is 31.6 µM (inconclusive). For the compound `C[C@H](NC(=O)c1ccc(Cl)c(Cl)c1)c1ccc(-c2ccccc2)cc1`, the half-maximal activity concentration (AC50) at Cytochrome P450 2C9 was 3.16 µM (inconclusive). Consider `COc1ccc(-c2ccc3c(n2)CCCN3C[C@H](O)CN2CCCc3nc(-c4ccc(Br)cc4)ccc32)cc1`, for which the AC50 on Cytochrome P450 2C9 is 3.98 µM (inconclusive) and 3.16 µM (inconclusive).

`Fc1ccc(-c2[nH]ncc2-c2nnnn2-c2ccccc2)c(F)c1`: the AC50 at Cytochrome P450 3A4 is 10 µM (inconclusive). Consider `N#Cc1c(-c2ccccc2)nc(SCc2ccc(Cl)cc2)[nH]c1=O`, for which the EC50 on Streptokinase A was 5.41 µM (active). For `N#Cc1c(O)nc(SCc2ccc(Cl)cc2)nc1-c1ccccc1`, the figures for the EC50 (in the test on Streptococcus; in test [1]) were 14.1 µM (active) and 11.4 µM (active), respectively.

Take `CCC(C)NCCOCCOc1ccc(F)cc1` (centres undefined): the values for the EC50 in test [2] and in test [3] were 10.7 µM (active) and 0.806 µM (active), respectively. Take `O=C(c1cc(-c2ccncc2)nc2ccccc12)N1CCN(c2ccccn2)CC1`: the EC50 in test [2] is 10 µM (active); in test [3] it was 1.1 µM (active). Consider `CCN(CC)C(=O)c1cnc2ccc(S(=O)(=O)Nc3cc(C)cc(C)c3)cc2c1O`, for which the EC50 in test [4] was 4.85 µM (active). Consider `O=c1c(-c2cc(F)cc(F)c2)nc2cnc(Oc3ccccc3)nc2n1C[C@H]1CCCO1`, for which, at Cytochrome P450 3A4, the AC50 was 15.8 µM (inconclusive). As to `Cc1cc(/C=C2\SC(=S)NC2=O)c(C)n1-c1cccc(O)c1`, the EC50 with Streptococcus was 49.7 µM (inconclusive); in test [1] it was 6.9 µM (active). `Cc1ccc(C)c(NC(=O)NCc2ccc(Cl)cc2)c1`: the AC50 on Cytochrome P450 3A4 was 2.51 µM (inconclusive).

`O=C(COc1c(Cl)cccc1Cl)Nc1ccccc1N1CCCC1`: the EC50 is > 150 µM (not active) with Streptococcus, 16.1 µM (active) at Streptokinase A and 16.4 µM (active) in test [1]. As to `O=C(Cc1ccccc1)NN1C(=O)/C(=C/c2c[nH]c3ccccc23)SC1=S`, the values for the EC50 (in the test on Streptococcus; at Streptokinase A; in test [1]) were > 150 µM (not active), > 150 µM (not active) and 20.4 µM (active), respectively. On to `Cc1ccc(S(=O)(=O)Nc2cc(C)c(O)c(S(=O)(=O)c3ccc(C)cc3)c2)cc1`, for which the EC50 is > 150 µM (not active) in the test with Streptococcus, > 150 µM (not active) on Streptokinase A and 39.6 µM (active) in test [1]. As for `CC(C)Sc1cc(N2CCCC2)nc(-c2ccc(F)cc2)n1`, the AC50 was 17.8 µM (inconclusive) at Cytochrome P450 3A4 and 7.94 µM (inconclusive) on Cytochrome P450 2C9. Moreover, the EC50 was 23.8 µM (active) in the test on Streptococcus, 10.9 µM (active) at Streptokinase A and 6.81 µM (active) in test [1].

Turning to `Cc1ccc2c(CC(=O)Nc3sccc3C(N)=O)coc2c1`, the EC50 in test [4] was > 53 µM (inactive). `CCc1ccc(NC(S)=NC2CC3CCCC(C2)N3Cc2cccs2)cc1` (centres undefined): the EC50 in test [2] was > 60 µM (not active); in test [3], 5.85 µM (active).

For `CCOC(=O)CC1C(=O)NCCN1S(=O)(=O)c1ccc(Cl)c(Cl)c1` (centres undefined), the AC50 on Cytochrome P450 3A4 was 12.6 µM (inconclusive). With `COc1ccc(-c2noc(-c3ccccc3-c3ccccc3)n2)cc1`, the figures for the EC50 (in the test on Streptococcus; on Streptokinase A; in test [1]) were > 150 µM (not active), 17.8 µM (active) and 32.9 µM (active), respectively. Consider `C=CCn1c(NCc2cc(Cl)ccc2O)nc2ccccc21`, for which the EC50 (in the test with Streptococcus; on Streptokinase A; in test [1]) was > 150 µM (not active) in each case. As for `CCOC(=O)Cn1cc(C=C2C(=O)N(C)C(=O)N(C)C2=O)c2ccccc21`, the EC50 in test [4] is 5.34 µM (active). `O=c1c2ccc([N+](=O)[O-])cc2ncn1CCOc1cccc(Br)c1`: the EC50 in test [2] is > 60 µM (not active); in test [3], 0.212 µM (active). On to `Cc1cc(C(F)(F)F)c(C#N)c(SCC(=O)Nc2nc3cc(Br)ccc3s2)n1`, for which the figures for the EC50 (in the test with Streptococcus; on Streptokinase A; in test [1]) were > 150 µM (not active), 17.5 µM (active) and 3.48 µM (active), respectively. For `O=C(c1cccs1)N1N=C(c2ccccc2)CC1c1ccccc1O` (centres undefined), the values for the EC50 in test [2] and in test [3] were > 60 µM (not active) and 2.84 µM (active), respectively. The like results for `CN1CCC(N(C)CC(=O)Nc2cccc(Oc3ccccc3)c2)CC1` were, in that order, > 60 µM (not active) and < 0.1 µM (active).

For `Cc1cc(NC(=O)CN2C(=O)c3ccccc3C2=O)no1`, the EC50 (with Streptococcus; on Streptokinase A; in test [1]) was > 150 µM (not active) in each case.

With `NC(=O)NC(=O)CSc1nc2sc(-c3ccccc3)cc2c(=O)n1-c1ccccc1`, the results for the EC50 (with Streptococcus; in test [1]) were 4.54 µM (active) and 2.21 µM (active), respectively.

Turning to `Nc1c2c(nc3ccccc13)CSCC2`, the EC50 is > 30 µM (not active) in test [2] and 3.33 µM (active) in test [3]. With `CN1CCN(c2ccncc2S(=O)(=O)N2CCN(C)CC2)CC1`, the half-maximal activity concentration (AC50) at Cytochrome P450 3A4 was 3.16 µM (inconclusive). On to `O=C(NCCN1CCCCC1)c1ccc(I)cc1`, for which, on Cytochrome P450 2C9, the AC50 is 31.6 µM (inconclusive). As for `C=CCSc1nc2ccccc2c(=O)n1Cc1ccccc1`, the EC50 in the test with Streptococcus is 99.4 µM (active); on Streptokinase A it was > 150 µM (not active); in test [1] it was 15.7 µM (active). Turning to `CO[C@@H]1COC(=O)C/C=C\[C@@H](C)[C@@H]2C=C[C@H](O)[C@@H](COC(=O)CCC[C@H]1C)O2`, the concentration at half-maximal activity (AC50) at Cytochrome P450 3A4 was 3.98 µM (inconclusive). On to `Nc1c(C(=O)NCc2ccccc2)sc2nc3c(cc12)C(=O)CCC3`, for which the figures for the half-maximal activity concentration (AC50) on Cytochrome P450 3A4 and on Cytochrome P450 2C9 were 25.1 µM (inconclusive) and 1.41 µM (inconclusive), respectively. In the case of `CC(Nc1nc(-c2ccccc2O)nc2ccccc12)c1ccccc1` (centres undefined), the EC50 in the test on Streptococcus was > 150 µM (not active); at Streptokinase A it was 8.55 µM (active); in test [1] it was 9.99 µM (active).

`C=CCn1c(=O)c(C(=O)NCCN(CC)CC)c(O)c2ccccc21`: the half-maximal activity concentration (AC50) at Cytochrome P450 2C9 was 8.91 µM (inconclusive). For the compound `C=CCNCCOCCOc1ccc(C)cc1[N+](=O)[O-]`, the AC50 on Cytochrome P450 3A4 was 12.6 µM (inconclusive).

For the compound `NC(=S)N/N=C/c1ccc2ccccc2c1`, the EC50 in test [2] was > 60 µM (not active); in test [3], 0.858 µM (active). As to `Oc1ccc2ccccc2c1CN1CCCCC1`, the EC50 in test [4] was 3.84 µM (active). Consider `O=C(/C=C/c1ccc([N+](=O)[O-])cc1)Oc1ccc(/C=N/NC(=O)c2ccncc2)cc1`, for which the EC50 is > 60 µM (not active) in test [2] and 9.25 µM (active) in test [3].

Take `Cc1sc(N)c(C(=O)c2cccc(C(F)(F)F)c2)c1C`: the half-maximal activity concentration (AC50) on Cytochrome P450 3A4 was 12.6 µM (inconclusive).
